Experimental data: paper PMC10222987 (Viruses, 2023)
Where two headings read alike, the source gives them in different places.

Columns and labels:
[1] = test system: rgH3N2.PA/I38T; design: species or system Syrian hamsters; conditions: hamster, in vivo
[2] = test system: rgH3N2.WT; conditions: hamster, in vivo
[3] = test system: rgH1N1.NA/H275Y; design: species or system BALB/c mice; conditions: mouse, in vivo
[4] = test system: rgH1N1.PA/I38T; design: species or system BALB/c mice; conditions: mouse, in vivo
[5] = test system: H3N2 (rgA/Victoria/3/75) PA/I38T; conditions: cited from earlier work
[6] = test system: rgH1N1.WT; conditions: mouse, in vivo
[7] = test system: H1N1 (rgA/WSN/33) PA/I38T; conditions: cited from earlier work
[8] = test system: H1N1pdm09.PA/I38T; design: species or system BALB/c mice; conditions: mouse, in vivo
[9] = test system: rgH1N1.PA/I38T; design: species or system BALB/c mice; conditions: mouse, in vivo; remark: listed apart in the source
[10] = test system: H1N1pdm09 (A/Osaka/129/2009) PA/I38T; format: cell-based, influenza A virus
[11] = test system: rgH1N1.WT; conditions: mouse, in vivo; remark: listed apart in the source
[12] = test system: rgH1N1.NA/H275Y; design: species or system BALB/c mice; conditions: mouse, in vivo; remark: listed apart in the source
[13] = test system: H1N1 (rgA/WSN/33) NA/H275Y; conditions: cited from earlier work
[14] = test system: rgH1N1.PA/I38T; design: species or system BALB/c mice; conditions: mouse, in vivo; remark: listed apart in the source
[15] = test system: H1N1 (rgA/WSN/33) PA/I38T; conditions: cited from earlier work; remark: listed apart in the source
[16] = test system: H1N1 (rgA/WSN/33) NA/H275Y; conditions: cited from earlier work; remark: listed apart in the source
[17] = test system: H3N2 (rgA/Victoria/3/75) PA/I38T; conditions: cited from earlier work; remark: listed apart in the source

## O=C1c2c(O)c(=O)ccn2N([C@@H]2c3ccccc3SCc3c2ccc(F)c3F)[C@@H]2COCCN12 [baloxavir acid]
[1]
  Reduction in virus titers vs vehicle and oseltamivir phosphate: statistically significant reduction in virus titers
[2]
  Reduction in virus titers vs vehicle and oseltamivir phosphate: significantly higher reduction in virus titers
[3]
  Inhibitory effect on loss of body weight vs oseltamivir phosphate: significantly greater with baloxavir acid than with oseltamivir phosphate
  Inhibitory effect on loss of body weight vs vehicle: significant inhibitory effect on loss of body weight
[4]
  Inhibitory effect on loss of body weight vs vehicle: significant inhibitory effect on loss of body weight
[5]
  EC50: 63.8 nM
  FC (fold change of EC50 relative to WT): 56.59 fold
[6]
  Antiviral activity vs oseltamivir phosphate (5 mg/kg, twice daily): significantly greater than oseltamivir phosphate
  Lung virus titer: < 1.5 log10 TCID50/mL
  Lung virus titers vs vehicle: significantly lower than vehicle-treated groups at all doses
[7]
  EC50: 11.4 nM
  FC (fold change of EC50 relative to WT): 27.24 fold
[8]
  Lung virus titers vs vehicle, time course: significantly lower with baloxavir than the vehicle-treated mice
  Reduction in lung virus titers vs oseltamivir phosphate (5 mg/kg, twice daily): statistically similar
  Viral rebound (increase in virus titers after dosing): did not observe any increase in virus titers
[8]; sc, 30 mg/kg
  Lung virus titer: 1.87 log10TCID50/mL
[9]
  Antiviral effect vs oseltamivir phosphate (5 mg/kg, twice daily): statistically similar
  Lung virus titers vs vehicle: significantly lower than vehicle
  Reduction of virus titers compared with vehicle: 1.88 log10 TCID50/mL
  Viral rebound (increase in virus titers after dosing): did not observe any increase in virus titers
[9]; sc, 10 mg/kg
  Lung virus titers vs vehicle: significant decrease in virus titers
[10]
  EC50: 15.7 nM
  FC (fold change of EC50 relative to WT): 25.74 fold
[11]
  Inhibitory effect on loss of body weight vs vehicle: significant inhibitory effect on loss of body weight
[12]
  Antiviral activity vs oseltamivir phosphate: significantly higher antiviral activity compared with oseltamivir phosphate
  Lung virus titer: < 1.5 log10 TCID50/mL
[13]
  EC50: 0.32 nM
  FC (fold change of EC50 relative to WT): 0.77 fold

## CCOC(=O)C1=C[C@@H](OC(CC)CC)[C@H](NC(C)=O)[C@@H](N)C1 [oseltamivir phosphate]
[6]
  Degree of virus titer reduction: 1.15 log10TCID50/mL
  Lung virus titers vs vehicle: statistically lower compared with vehicle
[14]
  Mean virus titer: 3.17 log10 TCID50/mL
[8]
  Lung virus titers vs vehicle: statistically lower compared with vehicle
[9]
  Lung virus titers vs vehicle: statistically lower compared with vehicle
[12]
  Degree of virus titer reduction: 0.38 log10TCID50/mL
  Lung virus titers vs vehicle: statistically lower compared with vehicle

## CCC(CC)O[C@@H]1C=C(C(=O)O)C[C@H](N)[C@H]1NC(C)=O [oseltamivir acid]
[15]
  FC (fold change of IC50 relative to WT): 1.00 fold
  IC50: 0.8 nM
[16]
  FC (fold change of IC50 relative to WT): 226.12 fold
  IC50: 182 nM
[17]
  FC (fold change of IC50 relative to WT): 1.21 fold
  IC50: 0.16 nM
